Like-named read-outs stand apart in the source and are kept apart here.
How the values were obtained:
[1] = tested on: FADD-deficient Jurkat T cells treated with TNF-α; assay: Inhibition of necroptosis (CICD) in FADD-deficient Jurkat T cells treated with TNF-α, ATP-based viability; format: cell-based, human; conditions: for antinecroptotic (anti-CICD) activity, in words: FADD-deficient Jurkat cells, TNFα
[2] = 10 ng/mL human TNF-α, 24 hours, ATP-based viability, EC50 ± SD from at least two independent experiments, read-out: EC50 (μM) for inhibition of necroptosis
[3] = Homo sapiens, Jurkat, 24 h, read-out: EC50 (μM) for inhibition of necroptosis

Row | Compound | antinecroptotic (anti-CICD) activity, in words [1] | EC50 [1, 3] | also measured
1 | COc1ccc([C@H]2[C@H]3CCc4ccc(OCCN5CCOCC5)cc4C3=NN2C(C)=O)cc1 (relative stereo) [Compound 183, (3R,3aR)-rel-2-acetyl-3,3a,4,5-tetrahydro-3-(4-methoxyphenyl)-8-(4-morpholino)ethoxy-2H-benz[g]indazole] | diminished activity | – | EC50 [1, 2]: > 50 µM
2 | COc1ccc([C@H]2[C@H]3CCc4ccc([N+](=O)[O-])cc4C3=NN2C(C)=O)cc1 (relative stereo) [Compound 169, (3R,3aR)-rel-2-acetyl-3,3a,4,5-tetrahydro-3-(4-methoxyphenyl)-8-nitro-2H-benz[g]indazole] | diminished inhibitory activity | 3.5 ± 1.5 µM | –
3 | COc1ccc([C@H]2[C@H]3CCc4ccc(OC)cc4C3=NN2C(N)=S)cc1 (relative stereo) [Compound 152, (3R,3aR)-rel-2-carbothioamide-3,3a,4,5-tetrahydro-3-(4-methoxyphenyl)-8-methoxy-2H-benz[g]indazole] | – | – | EC50 [1, 2]: 8.8 ± 3 µM
4 | CC(=O)N1N=C2c3ccccc3CC[C@H]2[C@@H]1c1ccc(F)cc1 (relative stereo) [Compound 199, (3R,3aS)-rel-2-acetyl-3,3a,4,5-tetrahydro-3-(4-fluorophenyl)-2H-benz[g]indazole] | – | – | melting point: 168 to 171 °C
5 | COc1ccc([C@H]2[C@@H]3CCc4ccc(F)cc4C3=NN2C(C)=O)cc1 (relative stereo) [Compound 170, (3R,3aS)-rel-2-acetyl-3,3a,4,5-tetrahydro-3-(4-methoxyphenyl)-8-fluoro-2H-benz[g]indazole] | – | 2.7 ± 0.82 µM | –
6 | CCN1N=C2c3cc(OC)ccc3CC[C@@H]2[C@@H]1c1ccc(OC)cc1 (relative stereo) [Compound 213, (3R,3aR)-rel-2-ethyl-3,3a,4,5-tetrahydro-3-(4-methoxyphenyl)-8-methoxy-2H-benz[g]indazole] | complete loss of necroptosis inhibitory activity | > 100 µM | –
7 | COc1ccc([C@H]2[C@H]3C[C@H](N)c4ccc(OC)cc4C3=NN2C(C)=O)cc1 (relative stereo) [Compound 145, (3R,3aR,5S)-rel-2-acetyl-5-amino-3,3a,4,5-tetrahydro-3-(4-methoxyphenyl)-8-methoxy-2H-benz[g]indazole] | – | 1.2 ± 0.38 µM | –
8 | COc1cc2c(cc1OC)C1=NN(C(C)=O)[C@@H](c3ccc(F)cc3)[C@@H]1CC2 (relative stereo) [Compound 198, (3R,3aS)-rel-2-acetyl-3,3a,4,5-tetrahydro-3-(4-fluorophenyl)-7,8-dimethoxy-2H-benz[g]indazole] | – | – | melting point: 231 to 233 °C
9 | COc1ccc([C@H]2[C@H]3CCc4ccc(OCc5ccccc5)cc4C3=NN2C(C)=O)cc1 (relative stereo) [Compound 181, (3R,3aR)-rel-2-acetyl-3,3a,4,5-tetrahydro-3-(4-methoxyphenyl)-8-benzyloxy-2H-benz[g]indazole] | diminished activity | 5 ± 0.7 µM | –
10 | CNC(=S)N1N=C2c3cc(OC)ccc3CC[C@@H]2[C@@H]1c1ccc(OC)cc1 (relative stereo) [Compound 154, (3R,3aR)-rel-2-carbothioamide-3,3a,4,5-tetrahydro-3-(4-methoxyphenyl)-8-methoxy-N-methyl-2H-benz[g]indazole] | – | – | EC50 [1, 2]: 7.9 ± 2 µM
11 | COc1ccc([C@H]2[C@H]3CCc4ccc(F)cc4C3=NN2C(C)=O)cc1 (relative stereo) [Compound 171, (3R,3aR)-rel-2-acetyl-3,3a,4,5-tetrahydro-3-(4-methoxyphenyl)-8-fluoro-2H-benz[g]indazole] | tolerated | 0.28 ± 0.032 µM | –
12 | COc1ccc2c(c1)C1=NN(C(C)=O)[C@@H](c3ccc(SC)cc3)[C@H]1CC2 (relative stereo) [Compound 182, (3R,3aR)-rel-2-acetyl-3,3a,4,5-tetrahydro-3-(4-thiomethoxyphenyl)-8-methoxy-2H-benz[g]indazole] | detrimental to activity to varying degrees | – | EC50 [1, 2]: 1.1 ± 0.69 µM
13 | COc1ccc2c(c1)C1=NN(C(C)=O)[C@@H](c3ccc4c(c3)OCO4)[C@@H]1CC2 (relative stereo) [Compound 205, (3R,3aS)-rel-2-acetyl-3,3a,4,5-tetrahydro-3-(3,4-methylenedioxyphenyl)-8-methoxy-2H-benz[g]indazole] | – | – | melting point: 165 to 169 °C
14 | COc1ccc2c(c1)CC[C@@H]1C2=NN(C(C)=O)[C@H]1c1ccc(F)cc1 (relative stereo) [Compound 162, (3R,3aS)-rel-2-acetyl-3,3a,4,5-tetrahydro-3-(4-fluorophenyl)-7-methoxy-2H-benz[g]indazole] | – | > 100 µM | –
15 | COc1ccc2c(c1)C1=NN(C(C)=O)[C@@H](c3ccc(O)cc3)[C@H]1CC2 (relative stereo) [Compound 175, (3R,3aR)-rel-2-acetyl-3,3a,4,5-tetrahydro-3-(4-hydroxyphenyl)-8-methoxy-2H-benz[g]indazole] | detrimental to activity to varying degrees | 5.9 ± 1.4 µM | –
16 | COCC(=O)N1N=C2c3cc(OC)ccc3CC[C@@H]2[C@@H]1c1ccc(OC)cc1 (relative stereo) [Compound 158, (3R,3aR)-rel-2-methoxyacetyl-3,3a,4,5-tetrahydro-3-(4-methoxyphenyl)-8-methoxy-2H-benz[g]indazole] | – | – | EC50 [1, 2]: 0.44 ± 0.24 µM

Row | Compound | antinecroptotic (anti-CICD) activity, in words [1] | EC50 [1, 3] | also measured
17 | COc1ccc([C@H]2[C@H]3C[C@H](N(C)C)c4ccc(OC)cc4C3=NN2C(C)=O)cc1 (relative stereo) [Compound 146, (3R,3aR,5S)-rel-2-acetyl-5-(N,N-dimethylamino)-3,3a,4,5-tetrahydro-3-(4-methoxyphenyl)-8-methoxy-2H-benz[g]indazole] | – | 5.1 ± 2.2 µM | –
18 | CC(=O)N1N=C2c3cc(O)ccc3CC[C@@H]2[C@@H]1c1ccc(O)cc1 (relative stereo) [Compound 176, (3R,3aR)-rel-2-acetyl-3,3a,4,5-tetrahydro-3-(4-hydroxyphenyl)-8-hydroxy-2H-benz[g]indazole] | – | > 100 µM | –
19 | COc1ccc([C@H]2[C@H]3CCc4ccc(OC)cc4C3=NN2C=O)cc1 (relative stereo) [Compound 147, (3R,3aR)-rel-2-formyl-3,3a,4,5-tetrahydro-3-(4-methoxyphenyl)-8-methoxy-2H-benz[g]indazole] | – | 0.92 ± 0.091 µM | –
20 | COc1ccc2c(c1)C1=NN(C(C)=O)[C@@H](c3ccc(O[N+](=O)[O-])cc3)[C@H]1CC2 (relative stereo) [Compound 172, (3R,3aR)-rel-2-acetyl-3,3a,4,5-tetrahydro-3-(4-nitroxyphenyl)-8-methoxy-2H-benz[g]indazole] | – | 1.8 ± 0.38 µM | –
21 | COc1ccc([C@H]2[C@@H]3CCc4ccccc4C3=NN2C(C)=O)cc1 (relative stereo) [Compound 201, (3R,3aS)-rel-2-acetyl-3,3a,4,5-tetrahydro-3-(4-methoxyphenyl)-2H-benz[g]indazole] | – | – | melting point: 260 to 262 °C
22 | COc1ccc2c(c1)C1=NN(C(C)=O)[C@@H](c3ccc(OCc4ccccc4)cc3)[C@H]1CC2 (relative stereo) [Compound 174, (3R,3aR)-rel-2-acetyl-3,3a,4,5-tetrahydro-3-(4-benzyloxyphenyl)-8-methoxy-2H-benz[g]indazole] | detrimental to activity to varying degrees | > 100 µM | –
23 | CN1C(=O)N[C@H](Cc2c[nH]c3c(Cl)cccc23)C1=O [R-7-Cl—O-Nec-1] | – | – | EC50 ([1]; Homo sapiens, Jurkat FADD deficient cells treated with TNFα, read-out: EC50): 0.047 µM; potency at inhibiting CICD relative to the (S)-enantiomer ([1]; enantiomers of 7-Cl—O-Nec-1): about 4 times
24 | COc1ccc([C@H]2[C@@H]3CCc4ccc([N+](=O)[O-])cc4C3=NN2C(C)=O)cc1 (relative stereo) [Compound 168, (3R,3aS)-rel-2-acetyl-3,3a,4,5-tetrahydro-3-(4-methoxyphenyl)-8-nitro-2H-benz[g]indazole] | – | > 100 µM | –
25 | COc1ccc([C@H]2[C@H]3CCc4ccc(OC)cc4C3=NN2C(N)=O)cc1 (relative stereo) [Compound 153, (3R,3aR)-rel-2-carboxamide-3,3a,4,5-tetrahydro-3-(4-methoxyphenyl)-8-methoxy-2H-benz[g]indazole] | – | – | EC50 [1, 2]: 4.3 ± 2.9 µM
26 | COc1ccc([C@H]2[C@H]3CCc4c(OC)cccc4C3=NN2C(C)=O)cc1 (relative stereo) [Compound 173, (3R,3aR)-rel-2-acetyl-3,3a,4,5-tetrahydro-3-(4-methoxyphenyl)-6-methoxy-2H-benz[g]indazole] | loss of activity | > 100 µM | –
27 | COc1ccc([C@H]2[C@H]3CCc4ccc(OC)cc4C3=NN2C(=N)N)cc1 (relative stereo) [Compound 157, (3R,3aR)-rel-2-carboxamidine-3,3a,4,5-tetrahydro-3-(4-methoxyphenyl)-8-methoxy-2H-benz[g]indazole] | – | – | EC50 [1, 2]: > 100 µM
28 | COc1ccc([C@H]2[C@H]3CCc4ccc(OC)cc4C3=NN2C(=O)COC(C)=O)cc1 (relative stereo) [Compound 150, (3R,3aR)-rel-2-acetoxyacetyl-3,3a,4,5-tetrahydro-3-(4-methoxyphenyl)-8-methoxy-2H-benz[g]indazole] | – | – | EC50 [1, 2]: 3.1 ± 0.17 µM
29 | CN1C(=O)C(Cc2c[nH]c3c(Cl)cccc23)NC1=S (centres unmarked) [Compound 7-Cl-Nec-1] | – | – | EC50 ([1]; Jurkat FADD deficient cells treated with TNFα, read-out: EC50): 0.182 µM; increase in activity relative to Nec-1 ([1]; addition of a chlorine to the phenyl ring of Nec-1): approximately 2.7 fold
30 | COc1ccc([C@H]2[C@H]3CCc4cccc(OC)c4C3=NN2C(C)=O)cc1 (relative stereo) [Compound 180, (3R,3aR)-rel-2-acetyl-3,3a,4,5-tetrahydro-3-(4-methoxyphenyl)-9-methoxy-2H-benz[g]indazole] | loss of activity | > 50 µM | –
31 | COc1ccc2c(c1)CC[C@H]1C2=NN(C(C)=O)[C@H]1c1ccc(F)cc1 (relative stereo) [Compound 163, (3R,3aR)-rel-2-acetyl-3,3a,4,5-tetrahydro-3-(4-fluorophenyl)-7-methoxy-2H-benz[g]indazole] | loss of activity | > 100 µM | –
